{"source": "paper PMC6843921", "about": "(Biomolecules, 2019)", "key": {"[1]": {"design": "method as in PMID 9299023", "conditions": "smallest reported value for the ATP:Mg^2+ complex; read-out: dissociation constant; cited from earlier work"}, "hDUT [2]": {"target": "T1, hDUT (Homo sapiens, UniProt P33316)", "T1 sequence (P33316 1-164 isoform P33316-2)": "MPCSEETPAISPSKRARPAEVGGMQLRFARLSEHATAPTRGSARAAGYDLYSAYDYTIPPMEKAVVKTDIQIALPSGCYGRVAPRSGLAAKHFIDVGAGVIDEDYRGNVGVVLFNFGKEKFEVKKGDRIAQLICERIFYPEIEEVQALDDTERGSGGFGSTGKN", "assay": "Thermofluor stability assay", "type": "binding", "design": "His tag (N); made in house", "conditions": "for Tm (5 mM Mg^2+): 5 mM MgCl2"}, "hDUT [3]": {"target": "T1, hDUT", "assay": "Isothermal titration calorimetry (ITC)", "type": "binding", "design": "His tag (N); made in house"}, "mtDUT [4]": {"target": "T2, mtDUT (Mycobacterium tuberculosis, UniProt P9WNS5)", "T2 sequence (P9WNS5 whole entry)": "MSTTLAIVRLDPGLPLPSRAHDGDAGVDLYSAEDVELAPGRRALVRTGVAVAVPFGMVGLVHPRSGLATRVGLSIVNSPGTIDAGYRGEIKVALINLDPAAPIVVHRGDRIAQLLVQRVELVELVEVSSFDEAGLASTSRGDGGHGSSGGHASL", "assay": "biochemical", "type": "binding", "design": "His tag (N); made in house"}, "hDUT [5]": {"target": "T1, hDUT", "design": "His tag (N); made in house; method as in PMID 20601405, PMID 17880943, PMID 17848562", "conditions": "same titration in the presence of Mg^2+; cited from earlier work"}, "mtDUT [6]": {"target": "T2, mtDUT", "conditions": "cited from earlier work"}, "hDUT [7]": {"target": "T1, hDUT", "design": "His tag (N); made in house; method as in PMID 18519027, PMID 17848562", "conditions": "dUTP hydrolysis; 5 mM Mg^2+, no EDTA; reported previously ref 20, 51; cited from earlier work"}, "hDUT [8]": {"target": "T1, hDUT", "conditions": "no Mg^2+; for kcat: dUTP hydrolysis, 20 °C, pH 7.5", "procedure": "(§1) Continuous pH indicator-based assays were performed to measure enzyme activity at 20 °C as described in [26]. Briefly, 1 µM protein was used in a buffer pH 7.5 containing 1 mM HEPES, 100 mM KCl and 40 µM phenol red. A Specord 200 (Analytic, Jena, Germany) spectrophotometer and 10-mm-path length cuvettes were used, and absorbance was recorded at 559 nm. Initial velocity was determined from the first 10% of the progress curve. […] Data fitting was accomplished using OriginPro 7.5 (OriginLab Corp, Northampton, MA, USA)."}, "mtDUT [9]": {"target": "T2, mtDUT", "procedure": "as §1"}, "[10]": {"conditions": "EDTA titrated with Mg^2+, pH 7.5, 293 K"}, "EcMutT [11]": {"target": "T3, EcMutT (Escherichia coli, UniProt P08337)", "T3 sequence (P08337 whole entry)": "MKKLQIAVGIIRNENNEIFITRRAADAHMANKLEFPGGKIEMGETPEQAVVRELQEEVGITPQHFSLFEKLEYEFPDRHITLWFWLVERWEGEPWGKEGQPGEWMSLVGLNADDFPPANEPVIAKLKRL", "conditions": "no Mg^2+, pH 7.5, 293 K"}, "Taq polymerase [12]": {"target": "T4, Taq polymerase (Thermus aquaticus, UniProt P19821)", "T4 sequence (P19821 whole entry)": "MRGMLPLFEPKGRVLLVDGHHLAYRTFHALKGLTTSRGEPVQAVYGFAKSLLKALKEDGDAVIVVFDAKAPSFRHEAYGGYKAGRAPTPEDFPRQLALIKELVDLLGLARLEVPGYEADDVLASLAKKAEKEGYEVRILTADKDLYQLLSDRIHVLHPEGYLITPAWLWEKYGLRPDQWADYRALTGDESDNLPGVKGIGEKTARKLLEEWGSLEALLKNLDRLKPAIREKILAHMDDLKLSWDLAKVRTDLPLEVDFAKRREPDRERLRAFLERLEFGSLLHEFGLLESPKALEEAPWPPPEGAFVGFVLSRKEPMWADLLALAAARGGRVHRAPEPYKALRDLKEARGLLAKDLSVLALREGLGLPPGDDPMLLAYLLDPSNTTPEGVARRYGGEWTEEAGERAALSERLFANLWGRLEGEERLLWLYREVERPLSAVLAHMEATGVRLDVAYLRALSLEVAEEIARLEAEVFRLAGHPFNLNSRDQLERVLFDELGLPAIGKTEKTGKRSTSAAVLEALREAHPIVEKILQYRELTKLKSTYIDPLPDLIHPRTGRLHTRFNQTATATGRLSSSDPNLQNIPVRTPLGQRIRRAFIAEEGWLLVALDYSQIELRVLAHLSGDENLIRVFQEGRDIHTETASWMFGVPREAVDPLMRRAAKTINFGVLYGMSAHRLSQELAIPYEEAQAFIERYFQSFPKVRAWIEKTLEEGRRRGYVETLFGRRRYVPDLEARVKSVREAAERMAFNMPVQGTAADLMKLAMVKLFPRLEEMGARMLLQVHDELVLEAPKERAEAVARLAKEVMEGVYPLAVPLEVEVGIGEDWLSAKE", "conditions": "no Mg^2+, pH 7.5, 293 K"}, "EcMutT [13]": {"target": "T3, EcMutT", "assay": "biochemical"}, "Taq polymerase [14]": {"target": "T4, Taq polymerase", "assay": "biochemical"}, "[15]": {"conditions": "hDUT complexed with ligand (100 µM dUPNPP or 1 mM dUMP)"}, "[16]": {"conditions": "apparent, no Mg^2+, pH 7.5, 293 K, average and SD"}, "[17]": {"conditions": "fit of the titration shown in Figure S1A, no Mg^2+"}, "[18]": {"conditions": "no Mg^2+, pH 7.5, 293 K, average and SD"}, "[19]": {"conditions": "fit of the titration shown in Figure S1B, no Mg^2+"}}, "note": "Several values for one entry are separate records, joined by “and”; a condition that tells them apart may be missing. Equal values may be shown once. Read-outs that look alike come from different tables or passages of the source."}
{"molecule": "Nc1ncnc2c1ncn2[C@@H]1O[C@H](COP(=O)(O)OP(=O)(O)OP(=O)(O)O)[C@@H](O)[C@H]1O", "note": "[ATP]", "values": [{"measurement": "Kd", "setting": "[1]", "result": 46300, "unit": "nM"}]}
{"molecule": "O=c1ccn([C@H]2C[C@H](O)[C@@H](COP(=O)(O)NP(=O)(O)OP(=O)(O)O)O2)c(=O)[nH]1", "note": "[dUPNPP]", "values": [{"measurement": "Tm (100 µM EDTA)", "setting": "hDUT [2]; [15]", "result": "58.3 ± 0.1", "unit": "°C"}, {"measurement": "Tm (5 mM Mg^2+)", "setting": "hDUT [2]; [15]", "result": "63.9 ± 0.3", "unit": "°C"}, {"measurement": "Tm (No Mg^2+, no EDTA)", "setting": "hDUT [2]; [15]", "result": "59.1 ± 0.2", "unit": "°C"}, {"measurement": "Kd", "setting": "hDUT [3]; [16]", "result": "44000 nM and 43900 nM"}, {"measurement": "Kd", "setting": "hDUT [3]; [17]", "result": 54000, "unit": "nM"}, {"measurement": "n (stoichiometry)", "setting": "hDUT [3]; [17]", "result": 0.41}, {"measurement": "ΔG", "setting": "hDUT [3]; [17]", "result": "–5.7 kcal/mol"}, {"measurement": "ΔH", "setting": "hDUT [3]; [17]", "result": "–19.9 kcal/mol"}, {"measurement": "–TΔS", "setting": "hDUT [3]; [17]", "result": 14.1, "unit": "kcal/mol"}, {"measurement": "ΔG", "setting": "hDUT [3]; [18]", "result": "-5.9 ± 0.2", "unit": "kcal/mol"}, {"measurement": "ΔH", "setting": "hDUT [3]; [18]", "result": "-17.4 ± 3.6", "unit": "kcal/mol"}, {"measurement": "−TΔS", "setting": "hDUT [3]; [18]", "result": "11.5 ± 3.7", "unit": "kcal/mol"}, {"measurement": "n (stoichiometry)", "setting": "mtDUT [4]", "result": 1}, {"measurement": "ΔG", "setting": "mtDUT [4]; [19]", "result": "–6.2 kcal/mol"}, {"measurement": "ΔH", "setting": "mtDUT [4]; [19]", "result": "–4.4 kcal/mol"}, {"measurement": "–TΔS", "setting": "mtDUT [4]; [19]", "result": "–1.8 kcal/mol"}, {"measurement": "ΔH", "setting": "mtDUT [4]; [18]", "result": "-4.5 ± 0.2", "unit": "kcal/mol"}, {"measurement": "−TΔS", "setting": "mtDUT [4]; [18]", "result": "-2.1 ± 0.4", "unit": "kcal/mol"}, {"measurement": "Kd", "setting": "hDUT [5]", "result": "2000 to 7000", "unit": "nM"}]}
{"molecule": "O=c1ccn([C@H]2C[C@H](O)[C@@H](COP(=O)(O)O)O2)c(=O)[nH]1", "note": "[dUMP]", "values": [{"measurement": "Tm (100 µM EDTA)", "setting": "hDUT [2]; [15]", "result": "58.7 ± 0.1", "unit": "°C"}, {"measurement": "Tm (5 mM Mg^2+)", "setting": "hDUT [2]; [15]", "result": "62.3 ± 0.1", "unit": "°C"}, {"measurement": "Tm (No Mg^2+, no EDTA)", "setting": "hDUT [2]; [15]", "result": "59.7 ± 0.1", "unit": "°C"}]}
{"molecule": "[Mg+2]", "note": "[Mg^2+]", "values": [{"measurement": "kcat", "setting": "mtDUT [6]", "result": "2.39 ± 0.16", "unit": "s⁻¹"}, {"measurement": "Km", "setting": "mtDUT [6]; dUTP hydrolysis, 5 mM Mg^2+, no EDTA, reported previously ref 20, 51", "result": "1.72 ± 0.51", "unit": "µM"}, {"measurement": "Tm (5 mM Mg^2+)", "setting": "hDUT [2]; apo hDUT", "result": "59.5 ± 0.3", "unit": "°C"}, {"measurement": "increase of melting temperature in the presence of Mg^2+", "setting": "hDUT [2]; apo hDUT, 5 mM Mg^2+ vs no Mg^2+", "result": 0.9, "unit": "°C"}, {"measurement": "Km", "setting": "hDUT [7]", "result": "2.26 ± 0.33", "unit": "µM"}, {"measurement": "kcat", "setting": "hDUT [7]", "result": "5.27 ± 0.24", "unit": "s⁻¹"}]}
{"molecule": "O=C(O)CN(CCN(CC(=O)O)CC(=O)O)CC(=O)O", "note": "[EDTA, ethylene diamine tetraacetic acid]", "values": [{"measurement": "KM increase", "setting": "hDUT [8]; 30 µM EDTA", "result": 2.7, "unit": "fold"}, {"measurement": "kcat decreased to", "setting": "hDUT [8]; 100 µM EDTA", "result": 6, "unit": "%"}, {"measurement": "kcat", "setting": "hDUT [8]; 30 µM EDTA", "result": "3.30 ± 0.26", "unit": "s⁻¹"}, {"measurement": "kcat", "setting": "hDUT [8]; 100 µM EDTA", "result": "0.24 ± 0.03", "unit": "s⁻¹"}, {"measurement": "KM increase", "setting": "mtDUT [9]", "result": 3.7, "unit": "fold"}, {"measurement": "ΔG", "setting": "[10]", "result": "-8.0 ± 0.9", "unit": "kcal/mol"}, {"measurement": "ΔH", "setting": "[10]", "result": "4.4 ± 0.3", "unit": "kcal/mol"}, {"measurement": "−TΔS", "setting": "[10]", "result": "-12.5 ± 0.6", "unit": "kcal/mol"}, {"measurement": "Kd", "setting": "[10]; apparent", "result": "2530 ± 180", "unit": "nM"}, {"measurement": "ΔG", "setting": "EcMutT [11]", "result": "-8.4 ± 0.1", "unit": "kcal/mol"}, {"measurement": "ΔH", "setting": "EcMutT [11]", "result": "-9.7 ± 0.02", "unit": "kcal/mol"}, {"measurement": "−TΔS", "setting": "EcMutT [11]", "result": "1.3 ± 0.1", "unit": "kcal/mol"}, {"measurement": "ΔG", "setting": "Taq polymerase [12]", "result": "-9.8 ± 0.0", "unit": "kcal/mol"}, {"measurement": "ΔH", "setting": "Taq polymerase [12]", "result": "-6.3 ± 0.7", "unit": "kcal/mol"}, {"measurement": "−TΔS", "setting": "Taq polymerase [12]", "result": "-3.5 ± 0.7", "unit": "kcal/mol"}, {"measurement": "Kd", "setting": "EcMutT [13]", "result": "550 ± 66", "unit": "nM"}, {"measurement": "Kd", "setting": "Taq polymerase [14]", "result": 47, "unit": "nM"}, {"measurement": "Tm (100 µM EDTA)", "setting": "hDUT [2]; apo hDUT", "result": "58.5 ± 0.1", "unit": "°C"}, {"measurement": "Kd", "setting": "hDUT [3]; absence of Mg^2+", "result": 199, "unit": "nM"}, {"measurement": "Kd", "setting": "hDUT [3]; [16]", "result": "200 ± 9", "unit": "nM"}, {"measurement": "ΔG", "setting": "hDUT [3]; [18]", "result": "-9.0 ± 0.0", "unit": "kcal/mol"}, {"measurement": "ΔH", "setting": "hDUT [3]; [18]", "result": "-11.2 ± 0.4", "unit": "kcal/mol"}, {"measurement": "−TΔS", "setting": "hDUT [3]; [18]", "result": "2.2 ± 0.4", "unit": "kcal/mol"}, {"measurement": "Kd", "setting": "mtDUT [4]", "result": 78, "unit": "nM"}, {"measurement": "ΔG", "setting": "mtDUT [4]; [18]", "result": "-9.6 ± 0.2", "unit": "kcal/mol"}, {"measurement": "ΔH", "setting": "mtDUT [4]; [18]", "result": "-4.2 ± 1.0", "unit": "kcal/mol"}, {"measurement": "−TΔS", "setting": "mtDUT [4]; [18]", "result": "-5.3 ± 1.2", "unit": "kcal/mol"}]}
